Tested on: diarrhea-predominant IBS subjects
Experiment: 3007 Study: open-label 52-week safety study, adverse events and withdrawals
Settings: Cilansetron 2 mg/Cilansetron 2 mg

Cc1nccn1C[C@H]1CCc2c(c3cccc4c3n2CCC4)C1=O [cilansetron, (R)-(−)-4,5,6,8,9,10-hexahydro-10-[(2-methyl-1H-imidazol-1-yl)methyl]-11H-pyrido-[3,2,1-jk]-carbazol-11-one]
4 (2%) n (%): TEAE: Intervertebral Disc Herniation | TEAE: Intestinal Haemorrhages | TEAE: Metabolism Tests NEC | TEAE: Neurological Signs and Symptoms NEC | TEAE: Osteoarthropathies | TEAE: Pharyngitis Streptococcal | TEAE: Rectal Haemorrhage
24 (9%) n (%): TEAE: Sinusitis NOS
56 (22%) n (%): TEAE: Musculoskeletal and Connective Tissue Disorders
18 (7%) n (%): TEAE: Nasopharyngitis | TEAE: Rhinoviral Infections
1 (<1%) n (%): TEAE: Intervertebral Disc Disorder NOS | TEAE: Intraocular Pressure Increased | TEAE: Irritable Bowel Syndrome | TEAE: Joint Related Disorders NEC | TEAE: Joint Sprain | TEAE: Joint Swelling | TEAE: Ligament Sprain | TEAE: Limb Injuries NEC (Incl Traumatic Amputation) | TEAE: Localised Infection | TEAE: Localised Osteoarthritis | TEAE: Loss of Consciousness | TEAE: Lower Limb Fractures and Dislocations | TEAE: Memory Loss (Excl Dementia) | TEAE: Monoarthritis | TEAE: Monocyte Count Decreased | TEAE: Muscle Spasms | TEAE: Muscle Tone Abnormalities | TEAE: Musculoskeletal Chest Pain | TEAE: Myalgia | TEAE: Mycoplasma Infections | TEAE: Nail Infection NOS | TEAE: Neck Pain | TEAE: Night Cramps | TEAE: Nitrite Urine Present | TEAE: Non-Accidental Overdose | TEAE: Ophthalmic Function Diagnostic Procedures | TEAE: Oral Dryness and Saliva Altered | TEAE: Overdoses | TEAE: Paraesthesias and Dysaesthesias | TEAE: Parkinson's Disease NOS | TEAE: Parkinson's Disease and Parkinsonism | TEAE: Periorbital Haematoma | TEAE: Peripheral Swelling | TEAE: Pneumonia Mycoplasmal | TEAE: Pneumonia NOS | TEAE: Post Procedural Discomfort | TEAE: Rectal Cramps | TEAE: Red Blood Cell Analyses | TEAE: Renal Function Analyses | TEAE: Reproductive Organ and Breast Histopathology Procedures | TEAE: Respiratory Tract Infection NOS | TEAE: Rib Fracture | TEAE: Road Traffic Accident | TEAE: Seizures and Seizure Disorders NEC | TEAE: Skin Fungal Infection NOS | TEAE: Skin Structures and Soft Tissue Infections | TEAE: Somnolence | TEAE: Spondyloarthropathies | TEAE: Spondylosis | TEAE: Staphylococcal Infection NOS | TEAE: Staphylococcal Infections | TEAE: Status Epilepticus | TEAE: Streptococcal Infection NOS | TEAE: Stress Fracture | TEAE: Temporomandibular Joint Disorder NOS | TEAE: Tension Headaches | TEAE: Thoracic Cage Fractures and Dislocations | TEAE: Tinea Infections | TEAE: Tinea Pedis | TEAE: Tongue Coated | TEAE: Tongue Signs and Symptoms | TEAE: Tooth Disorder NOS | TEAE: Tooth Impacted | TEAE: Tooth Infection | TEAE: Transient Global Amnesia | TEAE: Tremor | TEAE: Tremor (Excl Congenital) | TEAE: Umbilical Hernia NOS | TEAE: Umbilical Hernias
8 (3%) n (%): TEAE: Muscle Cramps | TEAE: Physical Examination Procedures
0 n (%): TEAE: Inguinal Hernia NOS | TEAE: Inguinal Hernias | TEAE: Kidney Infection NOS | TEAE: Limb Discomfort NOS | TEAE: Lip and Palate Disorders NEC | TEAE: Liver Function Tests NOS Abnormal | TEAE: Lower Limb Fracture NOS | TEAE: Movement Disorder NOS | TEAE: Muscle Infections and Inflammations | TEAE: Musculoskeletal and Soft Tissue Imaging Procedures | TEAE: Myasthenia Gravis | TEAE: Myeloradiculopathy | TEAE: Myositis | TEAE: Nail Fungal Infection NOS | TEAE: Neuromuscular Junction Dysfunction | TEAE: Osteopenia | TEAE: Otitis Media NOS | TEAE: Popliteal Bursitis | TEAE: Proctalgia | TEAE: Pruritus Ani | TEAE: Rectal Disorder NOS | TEAE: Rectal Tenesmus | TEAE: Red Blood Cells Urine | TEAE: Renal Bruit | TEAE: Rheumatoid Arthritis | TEAE: Rheumatoid Arthritis Aggravated | TEAE: Rheumatoid Arthropathies | TEAE: Rotator Cuff Syndrome | TEAE: Sinusitis Acute NOS | TEAE: Skin Infection NOS | TEAE: Sleep Apnoea Syndrome | TEAE: Sleep Apnoeas | TEAE: Speech and Language Abnormalities | TEAE: Spinal Cord and Nerve Root Disorders NEC | TEAE: Spondylitic Myelopathy | TEAE: Stomach Discomfort | TEAE: Tendon Disorders | TEAE: Tendonitis | TEAE: Tinea Cruris | TEAE: Trigger Finger
5 (2%) n (%): TEAE: Intervertebral Disc Disorders NEC | TEAE: Migraine Headaches | TEAE: Migraine NOS | TEAE: Muscle Strain | TEAE: Non-Site Specific Injuries NEC | TEAE: Streptococcal Infections
41 (16%) n (%): TEAE: Nervous System Disorders
220 (86%) n (%): TEAE: Total Number of Subjects with at Least One TEAE
6 (2%) n (%): TEAE: Muscle, Tendon and Ligament Injuries | TEAE: Site Specific Injuries NEC | TEAE: Tooth Abscess | TEAE: Triglyceride Analyses
26 (10%) n (%): TEAE: Injury, Poisoning and Procedural Complications
12 (5%) n (%): TEAE: Liver Function Analyses
77 (30%) n (%): TEAE: Investigations
21 (8%) n (%): TEAE: Lower Respiratory Tract and Lung Infections
106 (41%) n (%): TEAE: Infections and Infestations
19 (7%) n (%): TEAE: Musculoskeletal and Connective Tissue Signs and Symptoms NEC | TEAE: Nausea and Vomiting Symptoms | TEAE: Skeletal and Cardiac Muscle Analyses
9 (4%) n (%): TEAE: Muscle Related Signs and Symptoms NEC
15 (6%) n (%): TEAE: Nausea
3 (1%) n (%): TEAE: Irritable Bowel Syndrome Aggravated | TEAE: Laceration | TEAE: Neutrophil Count Decreased | TEAE: Non-Site Specific Procedural Complications | TEAE: Osteoarthritis Aggravated | TEAE: Sinus Headache
2 (<1%) n (%): TEAE: Intervertebral Disc Degeneration NOS | TEAE: Limb Injury NOS | TEAE: Lymphocyte Count Increased | TEAE: Metabolic Bone Disorders | TEAE: Mineral and Electrolyte Analyses | TEAE: Monocyte Count Increased | TEAE: Mononeuropathies | TEAE: Muscle Pains | TEAE: Osteoporosis NOS | TEAE: Pain in Limb | TEAE: Plantar Fasciitis | TEAE: Post Procedural Pain | TEAE: Protein Urine Present | TEAE: Soft Tissue Disorders NEC | TEAE: Tissue Enzyme Analyses NEC | TEAE: Toothache
11 (4%) n (%): TEAE: Influenza | TEAE: Influenza Viral Infections | TEAE: Joint Related Signs and Symptoms

— patent US20070093520A1, “Method of treatment of diarrhea-predominant irritable bowel syndrome in a subject” (priority 2005, published 2007)
